According to US7977120B2, “Fluorescent sensors for cellular amines” (The Curators of the University of Missouri, priority 2005, dated 2011):

Legend:
[1] = tested on: norepinephrine-enriched chromaffin cells; test: Staining norepinephrine-enriched chromaffin cells with Sensor IIb; assay type: cell-based; conditions: 0.25 μM, 15 minutes, 37 C, confocal microscopy; compared with epinephrine-enriched cells
From the text: (§1) The adrenal medulla contains two types of chromaffin cells; those that primarily contain norepinephrine within vesicles and those that primarily contain epinephrine. The two types of cells can be separated upon high-speed centrifugation in a Percoll density gradient. Following centrifugation, the less-dense norepinephrine enriched cells can be collected from the top of the gradient, whereas the denser epinephrine-enriched cells settle to the bottom.
(§2) Following centrifugation of adrenal medullary cells in a Percoll density gradient, the less-dense norepinephrine enriched cells were collected from the top of the gradient, whereas the denser epinephrine-enriched cells were collected from the bottom of the gradient. Both collections of cells were incubated for 15 minutes at 37 C in 0.25 μM IIb dissolved in cell culture media. The cells were then washed in dye-free media and observed using a confocal microscope at room temperature.
(§3) Because it is possible to separate chromaffin cells into populations which contain epinephrine and norepinephrine, these cells were used to test sensor 76.

[2] = tested on: epinephrine-enriched chromaffin cells; test: Staining epinephrine-enriched chromaffin cells with Sensor IIb; assay type: cell-based; conditions: identical conditions as norepinephrine cells
From the text: as §1, §2, §3

Structure (SMILES): CN(CCCSc1c(C=O)c(=O)n(Cc2ccccc2)c2cc(N(C)C)ccc12)Cc1ccccc1B(O)O [Sensor IIb]
- staining of norepinephrine-enriched cells [1]: stained brightly
- staining of epinephrine-containing cells [2]: did not stain well
